From US11673889B2, “Substituted imidazo[4,5-c][1,8]naphthyridines as phosphodiesterase inhibitors” (Nanjing Zhengxiang Pharmaceuticals Co., Ltd., priority 2019, dated 2023)

Legend:
human soluble ENPP1 [1] = target: T1, human soluble ENPP1 (Homo sapiens, UniProt P22413); test: ENPP1 activity assay using p-Nitrophenyl-5′-TMP as a substrate; type: biochemical
T1 construct: 20 ng of human soluble ENPP1
T1 sequence (P22413 103-925 limits assumed): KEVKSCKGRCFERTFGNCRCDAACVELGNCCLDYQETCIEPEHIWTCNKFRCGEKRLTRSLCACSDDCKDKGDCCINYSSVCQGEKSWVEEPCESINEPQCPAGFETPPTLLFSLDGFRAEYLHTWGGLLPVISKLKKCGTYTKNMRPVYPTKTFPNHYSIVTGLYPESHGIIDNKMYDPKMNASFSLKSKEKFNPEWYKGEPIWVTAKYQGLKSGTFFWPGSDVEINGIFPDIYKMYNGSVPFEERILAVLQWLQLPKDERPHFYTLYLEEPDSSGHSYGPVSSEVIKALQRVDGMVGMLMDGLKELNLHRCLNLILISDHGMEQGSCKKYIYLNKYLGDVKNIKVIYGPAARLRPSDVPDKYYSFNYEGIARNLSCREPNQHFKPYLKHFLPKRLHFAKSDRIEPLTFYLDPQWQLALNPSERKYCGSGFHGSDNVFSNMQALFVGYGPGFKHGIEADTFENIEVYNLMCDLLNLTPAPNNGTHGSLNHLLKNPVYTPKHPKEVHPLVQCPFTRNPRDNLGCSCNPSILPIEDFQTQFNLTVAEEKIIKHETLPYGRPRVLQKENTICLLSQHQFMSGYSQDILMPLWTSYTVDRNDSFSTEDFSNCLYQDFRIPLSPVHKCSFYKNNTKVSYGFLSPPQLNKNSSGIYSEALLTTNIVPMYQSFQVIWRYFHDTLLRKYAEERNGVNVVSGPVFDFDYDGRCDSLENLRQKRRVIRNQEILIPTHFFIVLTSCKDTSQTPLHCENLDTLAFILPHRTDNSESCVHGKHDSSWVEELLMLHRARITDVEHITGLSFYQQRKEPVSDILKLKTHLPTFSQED
Method in brief: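 Percent inhibition, set against uninhibited-enzyme and blank wells, was fitted to a four-parameter variable-slope model for IC50. Chromogenic read-out was p-nitrophenol released from TMP-pNP, added as a 2 mM […] solution for 1 h at RT. Before that, 20 ng soluble ENPP1 sat 30 min with compound.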

ENPP-1, MDA-MB-231 cells = target: T2, ENPP-1, MDA-MB-231 cells (Homo sapiens, UniProt P22413); test: cell-based; conditions: for inhibition at 20 µM: MDA-MB-231, read-out: % Inhibition (at 20 μM)
T2 sequence (P22413 1-925): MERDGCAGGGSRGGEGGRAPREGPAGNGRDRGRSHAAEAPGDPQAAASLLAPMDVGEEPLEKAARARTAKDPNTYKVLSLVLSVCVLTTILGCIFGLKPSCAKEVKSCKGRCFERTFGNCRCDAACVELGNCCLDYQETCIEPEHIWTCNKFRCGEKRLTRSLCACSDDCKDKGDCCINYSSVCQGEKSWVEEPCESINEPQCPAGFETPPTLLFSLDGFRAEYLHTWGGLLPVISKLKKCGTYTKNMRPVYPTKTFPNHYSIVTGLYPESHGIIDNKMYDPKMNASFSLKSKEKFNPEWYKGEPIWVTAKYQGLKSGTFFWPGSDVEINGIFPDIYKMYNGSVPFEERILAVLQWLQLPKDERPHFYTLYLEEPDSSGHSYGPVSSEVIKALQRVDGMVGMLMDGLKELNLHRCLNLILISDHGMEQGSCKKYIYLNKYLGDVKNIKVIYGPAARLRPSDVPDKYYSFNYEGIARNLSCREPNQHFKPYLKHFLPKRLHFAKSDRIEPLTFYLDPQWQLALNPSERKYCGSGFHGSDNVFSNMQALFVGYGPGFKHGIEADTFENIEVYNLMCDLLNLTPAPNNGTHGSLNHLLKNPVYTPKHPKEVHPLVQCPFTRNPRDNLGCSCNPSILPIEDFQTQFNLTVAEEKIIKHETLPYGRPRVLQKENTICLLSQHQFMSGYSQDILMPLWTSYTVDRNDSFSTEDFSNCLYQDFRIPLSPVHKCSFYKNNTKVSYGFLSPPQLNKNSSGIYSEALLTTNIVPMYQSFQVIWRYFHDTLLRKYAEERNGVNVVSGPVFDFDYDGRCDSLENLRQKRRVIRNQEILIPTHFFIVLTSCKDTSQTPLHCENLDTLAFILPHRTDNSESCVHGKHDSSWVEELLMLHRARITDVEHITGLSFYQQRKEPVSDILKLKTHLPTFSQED

human soluble ENPP1 [2] = target: T1, human soluble ENPP1; test: ENPP1 activity assay using p-Nitrophenyl-5′-AMP as a substrate; type: biochemical
Method in brief: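 Absorbance at 405 nm tracks p-nitrophenol from AMP-pNP hydrolysis after 1 h at room temperature, substrate added as 3 mM (2× final) following 30 min enzyme–compound preincubation. Enzyme: 35 ng human soluble ENPP1. IC50 fitted (variable-slope four-parameter) from percent inhibition normalized to max and blank.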

[3] = substrate TMP-pNP, 20 ng human soluble ENPP1, Tris buffer pH 9.5, read-out: TMP-pNP (IC50)

SMILES: COc1ccc2c(ncc3[nH]c(=O)n([C@H](C)c4ccc(S(N)(=O)=O)cc4)c32)n1 [Compound 101, (R)-4-(1-(7-methoxy-2-oxo-2,3-dihydro-1H-imidazo[4,5-c][1,8]naphthyridin-1-yl)ethyl)benzenesulfonamide]
- IC50 (human soluble ENPP1 [1]): 0.67 nM
- IC50 (ENPP-1, MDA-MB-231 cells): 2400 nM
- inhibition at 20 µM (ENPP-1, MDA-MB-231 cells): 76%
- IC50 (human soluble ENPP1 [2]): 1.1 nM

SMILES: COc1ccc2c(ncc3[nH]c(=O)n(Cc4c(F)cc(S(=O)(=O)NC(C)=O)cc4F)c32)n1 [Compound 104, sodium acetyl((3,5-difluoro-4-((7-methoxy-2-oxo-2,3-dihydro-1H-imidazo[4,5-c][1,8]naphthyridin-1-yl)methyl)phenyl)sulfonyl)amide]
- IC50 (human soluble ENPP1 [1]): 8.9 nM
- IC50 (ENPP-1, MDA-MB-231 cells): 3400 nM
- inhibition at 20 µM (ENPP-1, MDA-MB-231 cells): 72%
- IC50 (human soluble ENPP1 [2]): 11 nM

SMILES: CCC(=O)NS(=O)(=O)c1cc(F)c(Cn2c(=O)[nH]c3cnc4nc(OC)ccc4c32)c(F)c1 [Compound 105, sodium ((3,5-difluoro-4-((7-methoxy-2-oxo-2,3-dihydro-1H-imidazo[4,5-c][1,8]naphthyridin-1-yl)methyl)phenyl)sulfonyl)(propionyl)amide]
- IC50 (human soluble ENPP1 [1]; [3]): 21 nM
- IC50 (ENPP-1, MDA-MB-231 cells): > 6700 nM
- inhibition at 20 µM (ENPP-1, MDA-MB-231 cells): 67%
- IC50 (human soluble ENPP1 [2]): 19 nM

SMILES: COc1ccc2c(ncc3[nH]c(=O)n(Cc4c(F)cc(C(=O)O)cc4F)c32)n1 [Compound 108, 3,5-difluoro-4-((7-methoxy-2-oxo-2,3-dihydro-1H-imidazo[4,5-c][1,8]naphthyridin-1-yl)methyl)benzoic acid]
- IC50 (human soluble ENPP1 [1]): 16 nM
- IC50 (ENPP-1, MDA-MB-231 cells): 5700 nM
- inhibition at 20 µM (ENPP-1, MDA-MB-231 cells): 64%
- IC50 (human soluble ENPP1 [2]): 66 nM

SMILES: COc1ccc2c(ncc3[nH]c(=O)n(Cc4c(F)cc(C(=O)NO)cc4F)c32)n1 [Compound 110, 3,5-difluoro-N-hydroxy-4-((7-methoxy-2-oxo-2,3-dihydro-1H-imidazo[4,5-c][1,8]naphthyridin-1-yl)methyl)benzamide]
- IC50 (human soluble ENPP1 [1]; [3]): 0.6 nM
- IC50 (ENPP-1, MDA-MB-231 cells): 150 nM
- inhibition at 20 µM (ENPP-1, MDA-MB-231 cells): 86%
- IC50 (human soluble ENPP1 [2]): 2.6 nM

SMILES: COc1ccc2c(ncc3[nH]c(=O)n(Cc4c(F)cc(B(O)O)cc4F)c32)n1 [Compound 111, (3,5-difluoro-4-((7-methoxy-2-oxo-2,3-dihydro-1H-imidazo[4,5-c][1,8]naphthyridin-1-yl)methyl)phenyl)boronic acid]
- IC50 (human soluble ENPP1 [1]; [3]): 7.4 nM
- IC50 (ENPP-1, MDA-MB-231 cells): 0.31 nM
- inhibition at 20 µM (ENPP-1, MDA-MB-231 cells): 80%
- IC50 (human soluble ENPP1 [2]): 21 nM

SMILES: COc1ccc2c(ncc3[nH]c(=O)n(Cc4c(F)cc(S(N)(=O)=O)c(F)c4F)c32)n1 [Compound 112, 2,3,5-trifluoro-4-((7-methoxy-2-oxo-2,3-dihydro-1H-imidazo[4,5-c][1,8]naphthyridin-1-yl)methyl)benzenesulfonamide]
- IC50 (human soluble ENPP1 [1]; [3]): 0.3 nM
- IC50 (ENPP-1, MDA-MB-231 cells): 70 nM
- inhibition at 20 µM (ENPP-1, MDA-MB-231 cells): 80%
- IC50 (human soluble ENPP1 [2]): 0.99 nM

SMILES: COc1ccc2c(n1)nc(C)c1[nH]c(=O)n(Cc3c(F)cc(S(N)(=O)=O)cc3F)c12 [Compound 113, 3,5-difluoro-4-((7-methoxy-4-methyl-2-oxo-2,3-dihydro-1H-imidazo[4,5-c][1,8]naphthyridin-1-yl)methyl)benzenesulfonamide]
- IC50 (human soluble ENPP1 [1]; [3]): 1.1 nM
- IC50 (ENPP-1, MDA-MB-231 cells): 250 nM
- inhibition at 20 µM (ENPP-1, MDA-MB-231 cells): 72%
- IC50 (human soluble ENPP1 [2]): 5 nM

SMILES: COc1ccc2c(ncc3c2n(Cc2c(F)cc(S(N)(=O)=O)cc2F)c(=O)n3CCO)n1 [Compound 115, 3,5-difluoro-4-((3-(2-hydroxyethyl)-7-methoxy-2-oxo-2,3-dihydro-1H-imidazo[4,5-c][1,8]naphthyridin-1-yl)methyl)benzenesulfonamide]
- IC50 (human soluble ENPP1 [1]; [3]): 0.11 nM
- IC50 (ENPP-1, MDA-MB-231 cells): 56 nM
- inhibition at 20 µM (ENPP-1, MDA-MB-231 cells): 78%
- IC50 (human soluble ENPP1 [2]): 0.32 nM

SMILES: COc1ccc2c(ncc3cnn(Cc4ccc(S(N)(=O)=O)cc4)c32)n1 [Compound 116, 4-((7-methoxy-1H-pyrazolo[4,3-c][1,8]naphthyridin-1-yl)methyl)benzenesulfonamide]
- IC50 (human soluble ENPP1 [1]): 0.38 nM
- IC50 (ENPP-1, MDA-MB-231 cells): 1800 nM
- inhibition at 20 µM (ENPP-1, MDA-MB-231 cells): 68%
- IC50 (human soluble ENPP1 [2]): 1.8 nM

SMILES: COc1ccc2c(ncc3ccn(Cc4ccc(S(N)(=O)=O)cc4)c32)n1 [Compound 117, 4-((7-methoxy-1H-pyrrolo[3,2-c][1,8]naphthyridin-1-yl)methyl)benzenesulfonamide]
- IC50 (human soluble ENPP1 [1]): 8.1 nM
- IC50 (ENPP-1, MDA-MB-231 cells): 16000 nM
- inhibition at 20 µM (ENPP-1, MDA-MB-231 cells): 16%
- IC50 (human soluble ENPP1 [2]): 34 nM

SMILES: COc1ccc2c(c1)nnc1[nH]c(=O)n(Cc3ccc(S(N)(=O)=O)cc3F)c12 [Compound 123, 3-fluoro-4-((7-methoxy-2-oxo-2,3-dihydro-1H-imidazo[4,5-c]cinnolin-1-yl)methyl)benzenesulfonamide]
- IC50 (human soluble ENPP1 [1]; [3]): 0.61 nM
- IC50 (ENPP-1, MDA-MB-231 cells): 1800 nM
- inhibition at 20 µM (ENPP-1, MDA-MB-231 cells): 66%
- IC50 (human soluble ENPP1 [2]): 2.4 nM

SMILES: COc1ccc2c(ncc3[nH]c(=O)n(Cc4c(F)cc(P(=O)(O)O)cc4F)c32)n1 [Compound 124, (3,5-difluoro-4-((7-methoxy-2-oxo-2,3-dihydro-1H-imidazo[4,5-c][1,8]naphthyridin-1-yl)methyl)phenyl)phosphonic acid]
- IC50 (human soluble ENPP1 [1]): 19 nM
- IC50 (ENPP-1, MDA-MB-231 cells): 9.6 nM
- inhibition at 20 µM (ENPP-1, MDA-MB-231 cells): 86%
- IC50 (human soluble ENPP1 [2]): 56 nM

SMILES: COc1ccc2c(ncc3nc(C)n(Cc4cc(F)c(P(=O)(O)O)cc4F)c32)n1 [Compound 125, (2,5-difluoro-4-((7-methoxy-2-methyl-1H-imidazo[4,5-c][1,8]naphthyridin-1-yl)methyl)phenyl)phosphonic acid]
- IC50 (human soluble ENPP1 [1]): 7.2 nM
- IC50 (ENPP-1, MDA-MB-231 cells): 2.7 nM
- inhibition at 20 µM (ENPP-1, MDA-MB-231 cells): 82%
- IC50 (human soluble ENPP1 [2]): 21 nM

SMILES: COc1ccc2c(ncc3c2n(Cc2c(F)cc(S(N)(=O)=O)cc2F)c(=O)n3CC(F)(F)F)n1 [Compound 131, 3,5-difluoro-4-((7-methoxy-2-oxo-3-(2,2,2-trifluoroethyl)-2,3-dihydro-1H-imidazo[4,5-c][1,8]naphthyridin-1-yl)methyl)benzenesulfonamide]
- IC50 (human soluble ENPP1 [1]; [3]): 0.04 nM
- IC50 (ENPP-1, MDA-MB-231 cells): 80 nM
- inhibition at 20 µM (ENPP-1, MDA-MB-231 cells): 88%
- IC50 (human soluble ENPP1 [2]): 0.19 nM

SMILES: COCCn1c(=O)n(Cc2c(F)cc(S(N)(=O)=O)cc2F)c2c3ccc(OC)nc3ncc21 [Compound 132, 3,5-difluoro-4-((7-methoxy-3-(2-methoxyethyl)-2-oxo-2,3-dihydro-1H-imidazo[4,5-c][1,8]naphthyridin-1-yl)methyl)benzenesulfonamide]
- IC50 (human soluble ENPP1 [1]; [3]): 0.33 nM
- inhibition at 20 µM (ENPP-1, MDA-MB-231 cells): 87%
- IC50 (human soluble ENPP1 [2]): 0.74 nM

SMILES: COc1ccc2c(ncc3cnn(Cc4ccc(S(N)(=O)=O)cn4)c32)n1 [Compound 135a, 6-((7-methoxy-1H-pyrazolo[4,3-c][1,8]naphthyridin-1-yl)methyl)pyridine-3-sulfonamide]
- IC50 (human soluble ENPP1 [1]): 0.66 nM
- IC50 (ENPP-1, MDA-MB-231 cells): 80 nM
- inhibition at 20 µM (ENPP-1, MDA-MB-231 cells): 88%
- IC50 (human soluble ENPP1 [2]): 1.4 nM

SMILES: COc1ccc2c(n1)nc(C)c1nnn(Cc3ccc(S(N)(=O)=O)cn3)c12 [Compound 136, 6-((7-methoxy-4-methyl-1H-[1,2,3]triazolo[4,5-c][1,8]naphthyridin-1-yl)methyl)pyridine-3-sulfonamide]
- IC50 (human soluble ENPP1 [1]): 7.4 nM
- IC50 (ENPP-1, MDA-MB-231 cells): 0.31 nM
- inhibition at 20 µM (ENPP-1, MDA-MB-231 cells): 80%
- IC50 (human soluble ENPP1 [2]): 21 nM
